Legend:
[1] = tested on: primary human pan T-cells; experiment: Human IL-2 Assay for GCN2 Inhibition (IL-2 secretion from T cells in low amino acid condition); type: cell-based; details: Homo sapiens, T-cell, 96 h, IL-2 secretion from human T cells stimulated with anti-CD3/CD28 in low amino acid condition, ELISA, read-out: IL2/T-cell EC50
Text: Tumor microenvironment is profoundly immuno-suppressive. This may be attributed to the depletion of amino acids (like arginine and tryptophan) which triggers the activation of GCN2 in immune cells, including T cell and myeloid cells. In T cells, activation of GCN2 leads to reduce effector functions of CD8 T cells and induction and/or maintenance of immuno-suppressive T-regs. Inhibition of that immuno-suppressive response by GCN2 inhibitors enables an anti-cancer immune response by activating effector T-cells. Herein we describe an in-vitro system we established using human T-cells stimulated in low amino acid condition in order to engage the GCN2 biology. The method described involves the modulation of IL-2 levels secreted by human T cells in responses to the GCN2 inhibitors disclosed herein.
Amino acid-free RPMI was reconstituted with all but one of the amino acids found in standard RMPI (e.g. Arginine, Tryptophan), 10% charcoal-stripped fetal bovine serum, 100 Units/mL penicillin and 0.1 mg/mL streptomycin. Primary human pan T-cells were isolated using Pan T Cell Isolation Kit, human (MACS Miltenyi biotech Cat # Order no. 130-096-535) from apheresis cones and 5×104 pan T-cells per well. The purified T cells are seeded in Nunc™ 96-Well Polystyrene Round Bottom Microwell Plates (the cells are rested in No TRP media in a 15 ml falcon tube in the incubator for 30-45 minutes while titrations for tryptophan and the GCN2 inhibitor compound are made) A plate matrix was developed to titrate both a GCN2 inhibitor and the amino acid of interest ranging from “No Amino Acid” condition, up to the concentration found in the regular RPMI media (20 μM for TRP and 950 μM for Arginine). The cells were incubated for 30 min at 37° C. with the GCN2 inhibitor and then stimulated with 5×104 anti-CD3/CD28 Dynabeads® per well. After 96 hours of incubation the IL-2 level in the supernatant were measured using ELISA (R&D systems Cat # DY202 (Human IL-2 DuoSet ELISA). Data were plotted in GraphPad Prism software and EC50 is calculated.

GCN2 kinase = GCN2 kinase (Homo sapiens (Human), UniProt Q9P2K8); experiment: GCN2 Enzyme Inhibition Assay (Transcreener ADP2 fluorescence polarization); type: biochemical; details: 280 μM ATP, 200 μM (RS)7 peptide, 4 nM GCN2, 25° C.
Procedure, shortened: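 Transcreener ADP2 fluorescence polarization detection of ADP from 4 nM GCN2 with (RS)7 substrate in 25 mM Tris-HCl pH 7.5, 50 mM NaCl, 10 mM MgCl2, 1 mM DTT. Compound pre-incubated with enzyme 10 min at 25 °C; reaction started by ATP, run 1 h at 25 °C. IC50 and Ki(app) by tight-binding fit.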

[2] = target: intracellular GCN2 (phosphorylation of the GCN2 substrate eIF2α) (Homo sapiens (Human), UniProt Q9P2K8); experiment: GCN2 Cellular Inhibition Assay (AlphaScreen SureFire P-eIF2α Ser51, borrelidin-treated U2OS cells); type: cell-based; details: 10 μM borrelidin, 1 h, phosphorylated eIF2α Ser51, read-out: GCN2 Biomarker (IC50)
Procedure, shortened: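 U2OS cells adhered overnight, then given compound (top 40 μM, 4-fold serial dilutions) plus 10 μM borrelidin for 1 h at 37 °C. Lysates assayed for eIF2α phospho-Ser51 by AlphaScreen SureFire; % inhibition versus borrelidin-only wells.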

Sequence of GCN2 kinase (Q9P2K8 whole entry): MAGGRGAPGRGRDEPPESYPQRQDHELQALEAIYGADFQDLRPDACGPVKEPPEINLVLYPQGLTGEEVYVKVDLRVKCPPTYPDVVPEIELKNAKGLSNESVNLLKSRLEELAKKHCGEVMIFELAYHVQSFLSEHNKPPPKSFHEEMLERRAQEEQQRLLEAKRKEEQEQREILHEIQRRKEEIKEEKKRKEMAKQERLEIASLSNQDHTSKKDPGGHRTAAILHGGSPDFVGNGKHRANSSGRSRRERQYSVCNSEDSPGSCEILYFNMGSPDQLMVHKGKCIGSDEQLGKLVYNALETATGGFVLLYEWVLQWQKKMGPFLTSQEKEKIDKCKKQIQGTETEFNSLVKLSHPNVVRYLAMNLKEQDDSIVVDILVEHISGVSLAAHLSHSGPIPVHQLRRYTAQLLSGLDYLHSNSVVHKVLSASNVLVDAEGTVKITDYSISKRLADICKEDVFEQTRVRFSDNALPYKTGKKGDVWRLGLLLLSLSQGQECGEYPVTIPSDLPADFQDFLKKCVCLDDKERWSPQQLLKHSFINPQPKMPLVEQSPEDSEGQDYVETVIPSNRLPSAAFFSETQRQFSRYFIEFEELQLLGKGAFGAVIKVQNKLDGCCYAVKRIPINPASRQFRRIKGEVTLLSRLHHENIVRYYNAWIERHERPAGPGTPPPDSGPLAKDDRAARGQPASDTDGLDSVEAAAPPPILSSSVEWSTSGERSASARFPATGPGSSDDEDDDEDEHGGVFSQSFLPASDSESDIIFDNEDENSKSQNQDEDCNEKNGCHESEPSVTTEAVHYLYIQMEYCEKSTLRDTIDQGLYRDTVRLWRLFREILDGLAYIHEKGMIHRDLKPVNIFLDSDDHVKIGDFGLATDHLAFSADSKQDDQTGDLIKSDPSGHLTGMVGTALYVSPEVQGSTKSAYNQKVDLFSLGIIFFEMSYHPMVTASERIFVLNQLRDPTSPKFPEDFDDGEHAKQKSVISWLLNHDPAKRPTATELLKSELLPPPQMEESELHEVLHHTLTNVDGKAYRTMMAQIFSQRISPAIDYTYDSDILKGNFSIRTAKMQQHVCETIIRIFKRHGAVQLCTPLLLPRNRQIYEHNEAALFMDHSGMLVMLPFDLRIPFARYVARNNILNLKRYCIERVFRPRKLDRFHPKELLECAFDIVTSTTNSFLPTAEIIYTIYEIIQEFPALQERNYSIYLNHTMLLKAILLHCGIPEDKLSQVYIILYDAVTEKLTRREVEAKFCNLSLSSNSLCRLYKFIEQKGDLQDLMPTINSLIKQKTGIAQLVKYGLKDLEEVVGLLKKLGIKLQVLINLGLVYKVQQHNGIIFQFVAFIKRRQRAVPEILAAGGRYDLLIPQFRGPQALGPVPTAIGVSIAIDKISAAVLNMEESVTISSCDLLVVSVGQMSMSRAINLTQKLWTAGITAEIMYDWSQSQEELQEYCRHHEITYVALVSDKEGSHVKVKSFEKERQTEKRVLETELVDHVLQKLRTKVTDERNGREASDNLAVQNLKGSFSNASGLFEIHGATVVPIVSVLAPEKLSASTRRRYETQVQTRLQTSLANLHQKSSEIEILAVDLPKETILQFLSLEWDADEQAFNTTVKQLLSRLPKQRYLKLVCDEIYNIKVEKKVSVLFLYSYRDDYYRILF
Sequence of intracellular GCN2 (phosphorylation of the GCN2 substrate eIF2α) (Q9P2K8 whole entry): as above

| SMILES | EC50 [1] [nM] | IC50 (GCN2 kinase) [nM] | IC50 [2] [nM] | Ki (GCN2 kinase; Ki(app)) [nM] |
| --- | --- | --- | --- | --- |
| C[C@@H]1C[C@@H](c2cn[nH]c2)CN(c2ccnc(-c3cnc4ccc(C(F)(F)F)cn34)n2)C1 [I-567, 3-(4-((3R,5S)-3-methyl-5-(1H-pyrazol-4-yl)piperidin-1-yl)pyrimidin-2-yl)-6-(trifluoromethyl)imidazo[1,2-a]pyridine] | < 100 |  |  |  |
| C[C@H]1CN(c2ccnc(-c3cnc4ccc(Cl)cn34)n2)[C@@H](C)[C@@H](c2cn[nH]c2)N1 [I-563, 6-chloro-3-(4-((2S,3R,5S)-2,5-dimethyl-3-(1H-pyrazol-4-yl)piperazin-1-yl)pyrimidin-2-yl)imidazo[1,2-a]pyridine] | 100 to 500 |  |  |  |
| C[C@@H]1CN(c2ccnc(-c3cnc4ccc(C(F)(F)F)cn34)n2)C[C@H](c2cn[nH]c2)O1 [I-564, (2R,6S)-2-methyl-6-(1H-pyrazol-4-yl)-4-(2-(6-(trifluoromethyl)imidazo[1,2-a]pyridin-3-yl)pyrimidin-4-yl)morpholine] | < 100 |  |  |  |
| C[C@@H]1C[C@@H](N=S(C)(C)=O)CN(c2ccnc(-c3cnc4ccc(C(F)F)cn34)n2)C1 [I-569, (((3R,5R)-1-(2-(6-(difluoromethyl)imidazo[1,2-a]pyridin-3-yl)pyrimidin-4-yl)-5-methylpiperidin-3-yl)imino)dimethyl-λ6-sulfanone] | 100 to 500 |  |  |  |
| C[C@@H]1[C@H](C(N)=O)N(C2CC2)CCN1c1ccnc(-c2cnc3ccc(Cl)cn23)n1 [I-547, (2R,3R)-4-(2-(6-chloroimidazo[1,2-a]pyridin-3-yl)pyrimidin-4-yl)-1-cyclopropyl-3-methylpiperazine-2-carboxamide] | 100 to 500 |  |  |  |
| C[C@H]1CN(c2ccnc(-c3cnc4cc(F)c(Cl)cn34)n2)C[C@@H](c2cn[nH]c2)O1 [I-568, (2S,6R)-4-(2-(6-chloro-7-fluoroimidazo[1,2-a]pyridin-3-yl)pyrimidin-4-yl)-2-methyl-6-(1H-pyrazol-4-yl)morpholine] | 100 to 500 |  |  |  |
| C[C@@H]1[C@H](c2cn[nH]c2)N(C2COC2)CCN1c1ccnc(-c2cnc3ccc(C(F)(F)F)cn23)n1 [I-362, 4-[(2R,3 S)-2-methyl-4-(oxetan-3-yl)-3-(1H-pyrazol-4-yl)piperazin-1-yl]-2-[6-(trifluoromethyl)imidazo[1,2-a]pyridin-3-yl]pyrimidine] |  | < 10 | < 500 |  |
| Cc1[nH]ncc1C1N[C@@H](C)CN(c2nccc(-c3cnc4ccc(C(F)(F)F)cn34)n2)[C@H]1C (stereo partly drawn) [I-172, 3-(2-((2S,5S)-2,5-dimethyl-3-(5-methyl-1H-pyrazol-4-yl)piperazin-1-yl)pyrimidin-4-yl)-6-(trifluoromethyl)imidazo[1,2-a]pyridine] |  | 10 to 100 | < 500 |  |
| CS(=O)(=O)C1CC(N2CCN(c3ccnc(-c4cnc5ccc(C(F)(F)F)cn45)n3)C[C@H]2c2cn[nH]c2)C1 (stereo partly drawn) [I-490, 3-{4-[(R)-4-(3-Methanesulfonyl-cyclobutyl)-3-(1H-pyrazol-4-yl)-piperazin-1-yl]-pyrimidin-2-yl}-6-trifluoromethyl-imidazo[1,2-a]pyridine] |  | < 10 | < 500 |  |

The next lines start with the values.

| EC50 [1] [nM] | IC50 (GCN2 kinase) [nM] | IC50 [2] [nM] | Ki (GCN2 kinase; Ki(app)) [nM] | SMILES |
| --- | --- | --- | --- | --- |
| < 100 |  |  |  | C[C@@H]1CN(c2ccnc(-c3cnc4ccc(Cl)cn34)n2)C[C@H](c2cn[nH]c2)O1 [I-566, (2R,6S)-4-(2-(6-chloroimidazo[1,2-a]pyridin-3-yl)pyrimidin-4-yl)-2-methyl-6-(1H-pyrazol-4-yl)morpholine] |
| 100 to 500 |  |  |  | Cc1[nH]ncc1[C@H]1CN(c2ccnc(-c3cnc4ccc(Cl)cn34)n2)C[C@@H](C)O1 [I-561, (2R,6S)-4-(2-(6-chloroimidazo[1,2-a]pyridin-3-yl)pyrimidin-4-yl)-2-methyl-6-(5-methyl-1H-pyrazol-4-yl)morpholine] |
| < 100 |  |  |  | C[C@@H]1C[C@@H](c2cn[nH]c2)CN(c2ccnc(-c3cnc4ccc(Cl)cn34)n2)C1 [I-559, 6-chloro-3-(4-((3R,5S)-3-methyl-5-(1H-pyrazol-4-yl)piperidin-1-yl)pyrimidin-2-yl)imidazo[1,2-a]pyridine] |
| 100 to 500 |  |  |  | NC(=O)[C@H]1CCCN(c2ccnc(-c3cnc4cc(F)c(Cl)cn34)n2)C1 [I-558, (S)-1-(2-(6-chloro-7-fluoroimidazo[1,2-a]pyridin-3-yl)pyrimidin-4-yl)piperidine-3-carboxamide] |
|  | 10 to 100 | 500 to 5000 |  | Cc1[nH]ncc1[C@H]1CN(c2nccc(-c3cnc4ccc(Cl)cn34)n2)C[C@H](C)O1 (stereo in doubt) [I-181, (2S,6S)-4-(4-(6-chloroimidazo[1,2-a]pyridin-3-yl)pyrimidin-2-yl)-2-methyl-6-(5-methyl-1H-pyrazol-4-yl)morpholine] |
|  | 10 to 100 | 500 to 5000 |  | NC(=O)C1(O)CCCN(c2ccnc(-c3cnc4ccc(C(F)(F)F)cn34)n2)C1 (stereo not shown) [I-213, 3-hydroxy-1-(2-(6-(trifluoromethyl)imidazo[1,2-a]pyridin-3-yl)pyrimidin-4-yl)piperidine-3-carboxamide] |
|  | 10 to 100 | < 500 |  | NC(=O)[C@@H]1CN(c2ccnc(-c3cnc4ccc(C(F)(F)F)cn34)n2)CCO1 [I-150, (S)-4-(2-(6-(trifluoromethyl)imidazo[1,2-a]pyridin-3-yl)pyrimidin-4-yl)morpholine-2-carboxamide] |
|  | 10 to 100 | < 500 |  | C[C@@H]1CN(c2ccnc(-c3cnc4ccc(Cl)cn34)n2)C[C@@H](C(N)=O)O1 [I-177, (2S,6R)-4-(2-(6-chloroimidazo[1,2-a]pyridin-3-yl)pyrimidin-4-yl)-6-methylmorpholine-2-carboxamide] |
|  | 10 to 100 | < 500 |  | CC1(C)C[C@H]1CN1CCN(c2ccnc(-c3cnc4ccc(C(F)(F)F)cn34)n2)C[C@@H]1c1cn[nH]c1 [I-528, 3-(4-((S)-4-(((R)-2,2-dimethylcyclopropyl)methyl)-3-(1H-pyrazol-4-yl)piperazin-1-yl)pyrimidin-2-yl)-6-(trifluoromethyl)imidazo[1,2-a]pyridine] |
|  |  | 500 to 5000 | 10 to 100 | CC1CC(CS(C)(=N)=O)C(C)N(c2ccnc(-c3cnc4ccc(Cl)cn34)n2)C1 (stereo not shown) [I-46, ((1-(2-(6-Chloroimidazo[1,2-a]pyridin-3-yl)pyrimidin-4-yl)-2,5-dimethylpiperidin-3-yl)methyl)(imino)(methyl)-λ^6-sulfanone] |
|  | 100 to 1000 | 500 to 5000 |  | C[C@@H]1C[C@H](N=S(C)(C)=O)CN(c2ccnc(-c3cnc4ccc(Oc5ccccc5)cn34)n2)C1 [I-325, dimethyl({[(3 S,5R)-5-methyl-1-(2-{6-phenoxyimidazo[1,2-a]pyridin-3-yl}pyrimidin-4-yl)piperidin-3-yl]imino})-λ6-sulfanone] |
|  | < 10 | < 500 |  | Cc1cc(-c2cnc3ccc(N4CC(F)(F)C4)cn23)nc(N2C[C@H](C)C[C@H](c3cn[nH]c3)C2)n1 [I-288, 6-(3,3-difluoroazetidin-1-yl)-3-(6-methyl-2-((3R,5R)-3-methyl-5-(1H-pyrazol-4-yl)piperidin-1-yl)pyrimidin-4-yl)imidazo[1,2-a]pyridine] |
|  | 100 to 1000 | 500 to 5000 |  | CC(C)n1ccc(C(=O)N2[C@H](C)CN(c3ccnc(-c4cnc5ccc(C(F)(F)F)cn45)n3)C[C@@H]2C)n1 [I-401, (cis-2,6-dimethyl-4-(2-(6-(trifluoromethyl)imidazo[12-a]pyridin-3-yl)pyrimidin-4-yl)piperazin-1-yl)(1-isopropyl-1H-pyrazol-3-yl)methanone] |
